Reference: ChEMBL document CHEMBL5316360, “Fatty Acid Conjugated Chalcones as Tubulin Polymerization Inhibitors: Design, Synthesis, QSAR, and Apoptotic and Antiproliferative Activity” (J Nat Prod, 2023)
pIC50: −log10 of the molar value.

Legend:
[1] = system: WI-38; test: Cytotoxicity against human WI-38 cells assessed as reduction in cell viability at 10 to 100 uM measured after 24 hrs by MTT assay; type: toxicity, cell-based; conditions: wi-38, 24 h, dose 10-100 µM
[2] = system: MCF7; test: Antiproliferative activity against human MCF7 cells assessed as inhibition of cell growth measured after 24 hrs by MTT assay; type: functional, cell-based; conditions: MCF7, 24 h
[3] = target: Tubulin (Homo sapiens) (UniProt P68371+Q9H4B7+P0DPH7+P68366+Q13509+Q71U36+P04350+Q3ZCM7+P07437+P68363+Q9BQE3+Q6PEY2+Q13885+Q9BVA1+Q9BUF5); test: Inhibition of tubulin polymerization in human MCF7 cells assessed as fold increase in tubulin inhibition incubated for 18 to 24 hrs by ELISA method; type: cell-based; conditions: time 18-24 hrs
[4] = system: A549; test: Antiproliferative activity against human A549 cells assessed as inhibition of cell growth measured after 24 hrs by MTT assay; type: functional, cell-based; conditions: A549, 24 h
[5] = target: Tubulin; test: Inhibition of tubulin polymerization in human MCF7 cells incubated for 18 to 24 hrs by ELISA method; type: cell-based
[6] = system: Erythrocyte; test: Hemolytic activity in Albino rat RBC at 150 uM incubated for 15 mins by spectrophotometric analysis; type: toxicity, cell-based; conditions: 0.25 h

Q: How did the Activity [1] turn out when CCCCCCCCCC(=O)Nc1ccc(C(=O)/C=C/c2ccc(Cl)cc2)cc1 was run?
A: Its Activity is “Non-Toxic”.

Q: And the pIC50 [2]?
A: The pIC50 was 5.54.

Q: And the fold change (FC) [3]?
A: Its fold change (FC) is 2.

Q: What about the pIC50 [4] of the same compound?
A: The pIC50 was 5.49.

Q: Which Activity [1] does the source give for CCCCCCCCCC(=O)Nc1ccc(C(=O)/C=C/c2ccc(C)cc2)cc1 here?
A: The Activity was “Non-Toxic”.

Q: And the pIC50 [2]?
A: Its pIC50 is 5.59.

Q: And the fold change (FC) [3]?
A: Its fold change (FC) is 2.

Q: What about the pIC50 [4] of the same compound?
A: The pIC50 was 5.68.

Q: How did the Activity [1] turn out when CCCCCCCC(=O)Nc1ccc(C(=O)/C=C/c2ccccc2)cc1 was run?
A: Its Activity is “Non-Toxic”.

Q: And the pIC50 [2]?
A: The pIC50 was 5.68.

Q: And the pIC50 [5]?
A: The pIC50 was 5.82.

Q: Which fold change (FC) [3] does the source give for CCCCCCCCCC(=O)Nc1ccc(C(=O)/C=C/c2ccc(OC)cc2)cc1 here?
A: The fold change (FC) was 2.

Q: With CCCCCCCCCCCCCCCC(=O)Nc1ccc(C(=O)/C=C/c2ccc(OC)cc2)cc1 as the compound, how does the Activity [6] read?
A: Its Activity is “Non-Toxic”.

Q: How did the Activity [1] turn out when CCCCCCCCCCCCCCCC(=O)Nc1ccc(C(=O)/C=C/c2ccccc2)cc1 was run?
A: The Activity was “Non-Toxic”.

Q: CCCCCCCCCCCCCCCCCC(=O)Nc1ccc(C(=O)/C=C/c2ccccc2)cc1 was tested. Which Activity [1] did it give?
A: Its Activity is “Non-Toxic”.

Q: What about the pIC50 [5] of the same compound?
A: The pIC50 was 6.10.

Q: CCCCCCCCCCCCCC(=O)Nc1ccc(C(=O)/C=C/c2ccccc2)cc1 was tested. Which Activity [1] did it give?
A: Its Activity is “Non-Toxic”.

Q: CCCCCCCCCCCCCCCC(=O)Nc1ccc(C(=O)/C=C/c2ccc(Cl)cc2)cc1 was tested. Which Activity [6] did it give?
A: Its Activity is “Non-Toxic”.

Q: How did the Activity [1] turn out when CCCCCCCCCC(=O)Nc1ccc(C(=O)/C=C/c2ccccc2)cc1 was run?
A: The Activity was “Non-Toxic”.

Q: And the pIC50 [4]?
A: The pIC50 was 6.19.

Q: Which Activity [6] does the source give for CCCCCCCCCCCCCCCC(=O)Nc1ccc(C(=O)/C=C/c2ccc(C)cc2)cc1 here?
A: Its Activity is “Non-Toxic”.
